Experiments:
KDM4 = experiment: Immunoblotting of histone from tripartin-treated HeLa cell line: KDM4 inhibitory activity (H3K9me3); type: cell-based, human; conditions: 10 μM, 24 hours
Procedure: (§1) HeLa cell line, which is a uterine cervical cancer cell line, was treated with tripartin and then histone was extracted from the tripartin-treated HeLa cell. A histone methylation antibody which may verify activity of the KDM was analyzed by immunoblotting to measure the KDM inhibiting effect.
(§2) 0.1% (w/v) DMSO (control group), or 0.1% (w/v) DMSO and 10 μM tripartin (experimental group) was added to the HeLa cell line, which was then incubated at 37° C. for 24 hours. Subsequently, proteins were extracted from the HeLa cell line, and the extracted proteins underwent electrophoresis with 15% SDS-polyacrylamide. Anti-histone H3 antibody (MILLIPORE), anti-H3K9me3 antibody (MILLIPORE), anti-H3K9me2 antibody (MILLIPORE), anti-H3K3me1 antibody (MILLIPORE), anti-H3K27me3 antibody (MILLIPORE), anti-H3K4me3 antibody (MILLIPORE), anti-H3K36me3 antibody (MILLIPORE), anti-H3K79me2 antibody (MILLIPORE), and anti-H3ace antibody (MILLIPORE) were used to perform immunoblotting. […] Herein, H”, “K”, “me”, and “ace” refer to histone, lysine (K), methylation, and acetylation, respectively. The number next to “H” refers to a histone number, the number next to “K” refers to the histone amino acid number, and the number next to “me” refers to the number of methylation. For example, “H3K9me3” refers to histone H3 with a tri-methylated lysine in the ninth position. […]

KDM3 = experiment: Immunoblotting of histone from tripartin-treated HeLa cell line: KDM3 inhibitory activity (H3K9me2/1); type: cell-based, human; conditions: 10 μM, 24 hours, vs DMSO control
Procedure: as §1
(§3) 0.1% (w/v) DMSO (control group), or 0.1% (w/v) DMSO and 10 μM tripartin (experimental group) was added to the HeLa cell line, which was then incubated at 37° C. for 24 hours. Subsequently, proteins were extracted from the HeLa cell line, and the extracted proteins underwent electrophoresis with 15% SDS-polyacrylamide. Anti-histone H3 antibody (MILLIPORE), anti-H3K9me3 antibody (MILLIPORE), anti-H3K9me2 antibody (MILLIPORE), anti-H3K3me1 antibody (MILLIPORE), anti-H3K27me3 antibody (MILLIPORE), anti-H3K4me3 antibody (MILLIPORE), anti-H3K36me3 antibody (MILLIPORE), anti-H3K79me2 antibody (MILLIPORE), and anti-H3ace antibody (MILLIPORE) were used to perform immunoblotting. […] Herein, H”, “K”, “me”, and “ace” refer to histone, lysine (K), methylation, and acetylation, respectively. The number next to “H” refers to a histone number, the number next to “K” refers to the histone amino acid number, and the number next to “me” refers to the number of methylation. For example, “H3K9me3” refers to histone H3 with a tri-methylated lysine in the ninth position.
(§4) KDM3, KDM4, KDM6, KDM5, and KDM2/7 demethylate H3K9me2/1, H3K9me3, H3K27, H3K4, and H3K36, respectively.

KDM6 = experiment: Immunoblotting of histone from tripartin-treated HeLa cell line: KDM6 inhibitory activity (H3K27me3); type: cell-based, human; conditions: 10 μM, 24 hours, vs DMSO control
Procedure: as §1, §2

KDM5 = experiment: Immunoblotting of histone from tripartin-treated HeLa cell line: KDM5 inhibitory activity (H3K4me3); type: cell-based, human; conditions: 10 μM, 24 hours, vs DMSO control
Procedure: as §1, §2

KDM2/7 = experiment: Immunoblotting of histone from tripartin-treated HeLa cell line: KDM2/7 inhibitory activity (H3K36me3); type: cell-based, human; conditions: 10 μM, 24 hours, vs DMSO control
Procedure: as §1, §2

HeLa cell line = experiment: Immunoblotting of histone from tripartin-treated HeLa cell line: other histone marks (H3, H3K79me2, H3ace); type: cell-based, human; conditions: 10 μM, 37° C., 24 hours, vs DMSO control
Procedure: as §1, §3, §4

[1] = Analysis of physicochemical properties of tripartin

- Solubility ([1]; intermediate organic solvent such as methanol and acetone): well dissolved
- Stability of the solid ([1]; room temperature): stable at room temperature
SMILES: O=C1C[C@@](O)(C(Cl)Cl)c2c(O)cc(O)cc21 [tripartin]
- H3K9me3 level (immunoblotting) (KDM4; 37° C., vs DMSO control): increased significantly
- KDM4 inhibitory effect (KDM4; in comparison to the DMSO control group): inhibitory effect
- H3K9me1 level (immunoblotting) (KDM3; 37° C.): not increased
- H3K9me2 level (immunoblotting) (KDM3; 37° C.): not increased
- KDM3 inhibitory effect (KDM3): No inhibitory effect
- H3K27me3 level (immunoblotting) (KDM6; 37° C.): not increased
- KDM6 inhibitory effect (KDM6): No inhibitory effect
- H3K4me3 level (immunoblotting) (KDM5; 37° C.): not increased
- KDM5 inhibitory effect (KDM5): No inhibitory effect
- H3K36me3 level (immunoblotting) (KDM2/7; 37° C.): not increased
- KDM2/7 inhibitory effect (KDM2/7): No inhibitory effect
- H3K79me2 level (immunoblotting) (HeLa cell line): not increased
- H3ace level (immunoblotting) (HeLa cell line): not increased
- H3 level (immunoblotting) (HeLa cell line): not increased

— patent US9650325B2, “Compound, preparing method thereof, and use thereof as inhibitors of histone demethylase” (SNU R&DB FOUNDATION, priority 2013, dated 2017)
